Reference: patent US12612412B2, “Antiviral heterocyclic compounds” (Enanta Pharmaceuticals, Inc., priority 2021, dated 2026)
Read-outs that look alike come from different tables or passages of the source.

Columns and labels:
[1] = tested on: HMPV clinical isolate TN/1501/A1; test: HMPV antiviral assay Method-B (clinical isolate TN/1501/A1 in LLC-MK2 cells, ATP-Lite readout); assay type: cell-based, Human metapneumovirus (HMPV); conditions: hMPV WT1501 (clinical isolate TN/1501/A1), 6 days
Description: In vitro HMPV antiviral activity was evaluated using the clinical isolate TN/1501/A1 and LLC-MK2 cells (ATCC #CCL-7), an immortalized kidney epithelial cell line from Macaca mulatta. Compounds were resuspended in dimethyl sulfoxide (DMSO) at 10 mM and added to a 384-well source plate. The compounds were diluted and transferred onto 384-well assay plates using the Echo-650 automated liquid handling system (Beckman Coulter, Indiana). The test compounds were assessed in duplicate at a top concentration of 10 μM followed by 3-fold serial dilutions to give a total of 10 concentration points. DMSO control wells were also included on the assay plates and were either infected or not, acting as positive and negative controls. TN/1501/A1 virus infections were performed in-suspension with LLC-MK2 cells. The cells were washed twice with PBS and removed from the cell-culture flask with 0.25% trypsin-EDTA (Thermo Fisher Scientific, MA). The trypsin-EDTA was inactivated by resuspending in 2% fetal bovine serum (FBS) and OptiMEM (ThermoFisher Scientific, MA) containing 1% penicillin-streptomycin. Cells were pelleted by centrifuging for 5 minutes at 800 rpm, the supernatant was removed, and cells were suspended in PBS plus 100 μg/mL CaCl2). This step was performed twice. Cells were then resuspended in serum-free (SF)-OptiMEM containing 4 μg/mL TPCK-Trypsin (Sigma Aldrich, MO), 1% penicillin-streptomycin (ThermoFisher Scientific, MA) and 100 μg/mL CaCl2). Cells were counted and seeded at a density of 5,000 cells/well, 12.5 μL/well. Virus infections were done at a multiplicity of infection (MOI) of 0.014 with 12.5 μL added per well. SF-OptiMEM, 12.5 μL/well, was added to the appropriate wells to serve as a virus-free negative control for the assay. The final concentration of TPCK-trypsin was 2 μg/mL. Plates were incubated at 37° C., 5% CO2 for 6 days. After 6 days incubation, 12.5 μL of ATP-Lite (PerkinElmer, MA) was added to each well and the raw luminescence values were determined using the Envision 2104 (Perkin Elmer, MA). The average of the raw luminescence values for the cells and virus only positive control wells was subtracted from all conditions tested and the percent cell health was determined by dividing these values by the average of the cells only negative control wells. EC50 values were then calculated by non-linear regression using a four-parameter curve logistic equation. The curve fit model employed was XLFit Dose Response One Site Model 200: y=(A+(B/(1+((x/C)^D)))), where A is the minimum y value, B is the maximum y value, C is the log EC50 value, and D is the slope factor. […] EC50 ranges are as follows: A<0.5 μM; B>0.5 μM.

[2] = tested on: genotype A, "Long" strain RSV; test: RSV-A assay (CPE protection in Hep-2 cells, ATPlite readout); assay type: cell-based, Human respiratory syncytial virus (HRSV); conditions: human respiratory syncytial virus, MOI 0.1, CPE protection
In short: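 Protection from RSV-induced cytopathic effect measured by ATP content (ATPlite) after 5-day culture. Infection used genotype A Long virus at MOI 0.1 on 8,000 Hep-2 cells per well, with compound serially diluted 2-fold; values are EC50.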

[3] = human metapneumovirus, LLC-MK2, 144 h
[4] = RSV-A Long strain, read-out: Human RSV-A (“Long”) EC50
[5] = genotype A “Long” strain RSV, read-out: Human RSV-A (“Long”)

| SMILES | EC50 [1, 3] [nM] | EC50 [2, 4] [nM] | EC50 [2, 5] [nM] | EC50 [1] [nM] |
| --- | --- | --- | --- | --- |
| Cc1cnc2c(OC(F)F)cc(C(=O)NC[C@](O)(c3cc4c(c(-c5ccc(F)cc5)n3)OC[C@]4(C(N)=O)C(F)F)C3CC3)cc2c1 [Example 1026] | > 500 | > 200 | – | – |
| COc1cc(C(=O)NC[C@](O)(c2cc3c(c(-c4cc(Cl)c(F)c(Cl)c4)n2)OC[C@]3(C)C(N)=O)C(F)(F)F)cc2cn(C(F)F)nc12 [Example 670] | > 500 | – | < 200 | – |
| Cc1cnc2c(OC(F)F)cc(C(=O)NC[C@](O)(c3cc4c(c(-c5ccc(F)cc5)n3)OC[C@@]4(CF)C(N)=O)C3CC3)cc2c1 [Example 1057] | > 500 | > 200 | – | – |
| COc1cc(C(=O)NC[C@](O)(c2cc3c(c(-c4ccc(F)c(Cl)c4)n2)OC[C@]3(C(N)=O)C(F)F)C2CC2)cc2cc(Cl)c(C)nc12 [Example 1032] | > 500 | > 200 | – | – |
| COc1cc(C(=O)NC[C@](O)(c2cc3c(c(-c4ccc(Cl)cc4F)n2)OC[C@]3(C)C(N)=O)C2CC2)cc2cn(C3CC3)nc12 [Example 873] | < 500 | < 200 | – | – |
| C[C@]1(C(N)=O)COc2c1cc([C@@](O)(CNC(=O)c1cc(OC3CC3)c3nn(C(F)F)cc3c1)C(F)(F)F)nc2-c1ccc(F)c(Cl)c1F [Example 567] | < 500 | – | < 200 | – |
| COc1cc(C(=O)NC[C@](O)(c2nc(-c3ccc4c(c3)OC(F)(F)O4)c3c(c2F)[C@@](C)(C(N)=O)CO3)C2CC2)cc2cn(C(F)F)nc12 [Example 860] | < 500 | < 200 | – | – |
| [2H]C([2H])([2H])[C@](O)(CNC(=O)c1cc(OC(F)F)c2ncc(C)cc2c1)c1cc2c(c(-c3ccc(F)cc3)n1)OC[C@]2(C)C(N)=O [Example 647] | > 500 | – | < 200 | – |
| Cc1nc2c(OC3CC3)cc(C(=O)NC[C@](O)(c3cc4c(c(-c5csc6c(F)cccc56)n3)OC[C@]4(C)C(N)=O)C(F)(F)F)cc2cc1Cl [Example 603] | > 500 | – | < 200 | – |
| C[C@]1(C(N)=O)COc2c1cc([C@@](O)(CNC(=O)c1ccc3nn(C4CC4)cc3c1)C1CC1)nc2-c1ccc(F)c(Br)c1F [Example 1101] | < 500 | < 200 | – | – |
| COc1cc(C(=O)NC[C@](O)(c2cc3c(c(-c4ccc(F)c(F)c4Cl)n2)OC[C@]3(C)C(N)=O)C(F)(F)F)cc2cc(Br)cnc12 [Example 778] | < 500 | – | < 200 | – |
| COc1cc(C(=O)NC[C@](O)(c2cc3c(c(-c4ccc5c(c4)OC(F)(F)O5)n2)OC[C@@]3(C(N)=O)C(F)F)C(F)(F)F)cc2cc(Cl)c(C)nc12 [Example 1037] | < 500 | < 200 | – | – |
| COc1cc(C(=O)NC[C@](O)(c2cc3c(c(-c4ccc(F)c(F)c4F)n2)OC[C@]3(C)C(N)=O)C2CC2)cc2cn(C3CC3)nc12 [Example 525] | < 500 | – | < 200 | – |
| Cc1cnc2c(OC(F)(F)F)cc(C(=O)NC[C@](O)(c3cc4c(c(-c5ccc(F)cc5Cl)n3)OC[C@]4(C)C(N)=O)C(F)(F)F)cc2c1 [Example 519] | > 500 | – | < 200 | – |
| COc1cc(C(=O)NC[C@](O)(c2cc3c(c(-c4ccc(F)c(Cl)c4)n2)OC[C@]3(C(N)=O)C(F)F)C(F)(F)F)cc2sc(C)nc12 [Example 1018] | > 500 | > 200 | – | – |
| COc1cc(C(=O)NC[C@](O)(c2cc3c(c(-c4ccc(F)c(F)c4Cl)n2)OC[C@]3(C)C(N)=O)C2(F)CC2)cc2cn(C(F)F)nc12 [Example 748] | < 500 | – | < 200 | – |
| COc1cc(C(=O)NC[C@](O)(c2cc3c(c(-c4ccc(F)c(Cl)c4F)n2)OC[C@]3(C)C(N)=O)C2CC2)cc2cn(C3CC3)nc12 [Example 554] | < 500 | – | < 200 | – |
| C[C@]1(C(N)=O)COc2c1cc([C@@](O)(CNC(=O)c1ccc3nn(C4(F)CC4)cc3c1)C(F)(F)F)nc2-c1ccc(F)cc1 [Example 832] | > 500 | < 200 | – | – |
| C[C@]1(C(N)=O)COc2c1cc([C@@](O)(CNC(=O)c1cc(F)c3nn(C4CC4)cc3c1)C(F)(F)F)nc2-c1ccc2c(c1)OC(F)(F)O2 [Example 544] | < 500 | – | < 200 | – |

| SMILES | EC50 [1, 3] [nM] | EC50 [2, 4] [nM] | EC50 [2, 5] [nM] | EC50 [1] [nM] |
| --- | --- | --- | --- | --- |
| COc1cc(C(=O)NC[C@](O)(c2cc3c(c(-c4ccc(F)c(Cl)c4)n2)OC[C@]3(C(N)=O)C(F)F)C(F)(F)F)cc2cn(C3CC3)nc12 [Example 1002] | > 500 | > 200 | – | – |
| COc1cc(C(=O)NC[C@](O)(c2cc3c(c(-c4ccc(F)cc4)n2)OC[C@]3(C)C(N)=O)C2(F)CC2)cc2cn(C(F)F)nc12 [Example 711] | < 500 | – | < 200 | – |
| C[C@]1(C(N)=O)COc2c1cc([C@@](O)(CNC(=O)c1cc(Cl)c3nn(C4CC4)cc3c1)C1CC1)nc2-c1ccc(C(F)(F)F)cc1 [Example 795] | > 500 | – | < 200 | – |
| COc1cc(C(=O)NC[C@](O)(c2cc3c(c(-c4csc5c(F)cccc45)n2)OC[C@]3(C)C(N)=O)C2CC2)cc2cn(C3CC3)nc12 [Example 593] | < 500 | – | < 200 | – |
| COc1cc(C(=O)NC[C@](O)(c2cc3c(c(-c4cccc5c4OC(F)(F)O5)n2)OC[C@]3(C)C(N)=O)C(F)(F)F)cc2cn(C3CC3)nc12 [Example 928] | > 500 | < 200 | – | – |
| COc1cc(C(=O)NC[C@](O)(c2cc3c(c(-c4cc(F)c(F)cc4Cl)n2)OC[C@]3(C)C(N)=O)C2CC2)cc2cn(C(F)F)nc12 [Example 658] | < 500 | – | < 200 | – |
| C[C@]1(C(N)=O)COc2c1cc([C@@](O)(CNC(=O)c1cc(OCCF)c3nn(C4(F)CC4)cc3c1)C(F)(F)F)nc2-c1csc2c(F)cccc12 [Example 612] | < 500 | – | < 200 | – |
| COc1cc(C(=O)NC[C@](O)(c2cc3c(c(-c4ccc5c(c4)C(F)(F)C(=O)N5)n2)OC[C@]3(C)C(N)=O)C(F)(F)F)cc2cn(C3CC3)nc12 [Example 995] | > 500 | > 200 | – | – |
| COc1cc(C(=O)NC[C@](O)(c2cc3c(c(-c4cc(Br)c(F)cc4F)n2)OC[C@]3(C)C(N)=O)C(F)(F)F)cc2cn(C3CC3)nc12 [Example 1223] | – | < 200 | – | < 500 |
| COc1cc(C(=O)NC[C@](O)(c2cc3c(c(-c4c(F)ccc(Cl)c4F)n2)OC[C@]3(C)C(N)=O)C2CC2)cc2cn(C3CC3)nc12 [Example 1163] | < 500 | < 200 | – | – |
| COc1cc(C(=O)NC[C@](O)(c2cc3c(c(-c4ccc(F)cc4)n2)OC[C@@]3(C(N)=O)C(F)F)C(F)(F)F)cc2cn(C3CC3)nc12 [Example 999] | < 500 | < 200 | – | – |
| COc1cc(C(=O)NC[C@](O)(c2cc3c(c(-c4ccc(F)c(Cl)c4)n2)OC[C@@]3(C(N)=O)C(F)F)C2CC2)cc2cn(C(F)F)nc12 [Example 1045] | < 500 | < 200 | – | – |
| COc1cc(C(=O)NC[C@](O)(c2cc3c(c(-c4ccc5c(c4)OC(F)(F)O5)n2)OC[C@]3(C)C(N)=O)C2(F)CC2)cc2cn(C3CC3)nc12 [Example 712] | < 500 | – | < 200 | – |
| COc1cc(C(=O)NC[C@](O)(c2cc3c(c(-c4cc(Cl)c(F)c(Cl)c4)n2)OC[C@]3(C)C(N)=O)C2CC2)cc2cn(C3(F)CC3)nc12 [Example 678] | < 500 | – | – | – |
| COc1cc(C(=O)NC[C@](O)(c2cc3c(c(-c4ccc5c(c4)OC(F)(F)O5)n2)OC[C@]3(C)C(N)=O)C(F)(F)F)cc2cc(Br)c(C)nc12 [Example 770] | < 500 | – | – | – |
| COc1cc(C(=O)NC[C@](O)(c2cc3c(c(-c4ccc(Cl)c(F)c4F)n2)OC[C@]3(C)C(N)=O)C2CC2)cc2cc(Br)cnc12 [Example 689] | < 500 | – | – | – |
| COc1cc(C(=O)NC[C@](O)(c2cc3c(c(-c4csc5c(F)cccc45)n2)OC[C@]3(C)C(N)=O)C2(F)CC2)cc2cn(C3(F)CC3)nc12 [Example 629] | < 500 | – | – | – |
| COc1cc(C(=O)NC[C@](O)(c2nc(-c3cc(Cl)c(F)cc3F)c3c(c2F)[C@](C)(C(N)=O)CO3)C2CC2)cc2cn(C3CC3)nc12 [Example 868] | > 500 | – | – | – |
| COc1cc(C(=O)NC[C@](O)(c2cc3c(c(-c4ccc(F)cc4)n2)OC[C@]3(C)C(N)=O)C2(F)CC2)cc2cc(Br)c(C)nc12 [Example 772] | < 500 | – | – | – |
